According to ChEMBL document CHEMBL1145260, “Design, synthesis and structure-activity relationships of 6-O-arylpropargyl diazalides with potent activity against multidrug-resistant Streptococcus pneumoniae” (2005):
Values after ≈ are worked out from the molar mass of the structure shown.

Experiments:
Type in all cases: functional
Staphylococcus aureus [1] = assay: Minimum inhibitory concentration against Staphylococcus aureus A5177 (erythromycin-resistant strain
Streptococcus pyogenes [2] = assay: Minimum inhibitory concentration against Streptococcus pyogenes EES61 (erythromycin-susceptible strain)
Streptococcus pneumoniae [3] = assay: Minimum inhibitory concentration against Streptococcus pneumoniae 5649 strain
Streptococcus pneumoniae [4] = assay: Minimum inhibitory concentration against Streptococcus pneumoniae ATCC 6303 (erythromycin-susceptible strain)
Streptococcus pyogenes [5] = assay: Minimum inhibitory concentration against Streptococcus pyogenes 930 (erythromycin-resistant strain)
Staphylococcus aureus [6] = assay: Minimum inhibitory concentration against Staphylococcus aureus 6538P (erythromycin-susceptible strain)
Streptococcus pneumoniae [7] = assay: Minimum inhibitory concentration against Streptococcus pneumoniae 5979 strain
Haemophilus influenzae = assay: Minimum inhibitory concentration against Haemophilus influenzae GYR1435 (erythromycin susceptible strain)

Row | Structure (SMILES) | MIC (Staphylococcus aureus [1]) | MIC (Streptococcus pyogenes [2]) | MIC (Streptococcus pneumoniae [3]) | MIC (Streptococcus pneumoniae [4]) | MIC (Streptococcus pyogenes [5]) | MIC (Staphylococcus aureus [6]) | MIC (Streptococcus pneumoniae [7]) | MIC (Haemophilus influenzae)
1 | CC[C@H]1OC(=O)[C@H](C)C(=O)[C@H](C)[C@@H](O[C@@H]2O[C@H](C)C[C@H](N(C)C)[C@H]2O)[C@@](C)(OCC#CCCc2ccc(-c3cccs3)cc2)C[C@@H](C)C2=NCCN3C(=O)O[C@@]1(C)[C@H]3[C@H]2C | 0.5 µg/mL (≈ 0.59 µM) | ≤ 0.008 µg/mL | 0.25 µg/mL (≈ 0.295 µM) | 0.015 µg/mL (≈ 0.0177 µM) | 0.5 µg/mL (≈ 0.59 µM) | 1 µg/mL (≈ 1.18 µM) | 0.125 µg/mL (≈ 0.147 µM) | 8 µg/mL (≈ 9.43 µM)
2 | CC[C@H]1OC(=O)[C@H](C)C(=O)[C@H](C)[C@@H](O[C@@H]2O[C@H](C)C[C@H](N(C)C)[C@H]2O)[C@@](C)(OCC#Cc2cccnc2)C[C@@H](C)C2=NCCN3C(=O)O[C@@]1(C)[C@H]3[C@H]2C | 0.2 µg/mL (≈ 0.271 µM) | 0.03 µg/mL (≈ 0.0406 µM) | 1 µg/mL (≈ 1.35 µM) | 0.03 µg/mL (≈ 0.0406 µM) | 64 µg/mL (≈ 86.6 µM) | 0.2 µg/mL (≈ 0.271 µM) | > 128 µg/mL | 2 µg/mL (≈ 2.71 µM)
3 | CC[C@H]1OC(=O)[C@H](C)C(=O)[C@H](C)[C@@H](O[C@@H]2O[C@H](C)C[C@H](N(C)C)[C@H]2O)[C@@](C)(OCC#Cc2cccs2)C[C@@H](C)C2=NCCN3C(=O)O[C@@]1(C)[C@H]3[C@H]2C | 0.1 µg/mL (≈ 0.134 µM) | 0.03 µg/mL (≈ 0.0403 µM) | 0.25 µg/mL (≈ 0.336 µM) | 0.03 µg/mL (≈ 0.0403 µM) | 64 µg/mL (≈ 86 µM) | 0.1 µg/mL (≈ 0.134 µM) | > 128 µg/mL | 4 µg/mL (≈ 5.38 µM)
4 | CC[C@H]1OC(=O)[C@@](C)(F)C(=O)[C@H](C)[C@@H](O[C@@H]2O[C@H](C)C[C@H](N(C)C)[C@H]2O)[C@@](C)(OCC#Cc2ccc(-c3nnn(C)n3)s2)C[C@@H](C)C2=NCCN3C(=O)O[C@@]1(C)[C@H]3[C@H]2C | 0.125 µg/mL (≈ 0.148 µM) | ≤ 0.008 µg/mL | 0.25 µg/mL (≈ 0.296 µM) | ≤ 0.008 µg/mL | 2 µg/mL (≈ 2.37 µM) | 0.5 µg/mL (≈ 0.592 µM) | 0.125 µg/mL (≈ 0.148 µM) | 4 µg/mL (≈ 4.74 µM)
5 | CC[C@H]1OC(=O)[C@H](C)C(=O)[C@H](C)[C@@H](O[C@@H]2O[C@H](C)C[C@H](N(C)C)[C@H]2O)[C@@](C)(OCC#Cc2ccc(-c3cccs3)cc2)C[C@@H](C)C2=NCCN3C(=O)O[C@@]1(C)[C@H]3[C@H]2C | 0.03 µg/mL (≈ 0.0366 µM) | ≤ 0.008 µg/mL | ≤ 0.008 µg/mL | ≤ 0.008 µg/mL | 4 µg/mL (≈ 4.88 µM) | 0.5 µg/mL (≈ 0.61 µM) | ≤ 0.008 µg/mL | 2 µg/mL (≈ 2.44 µM)
6 | CC[C@H]1OC(=O)[C@H](C)C(=O)[C@H](C)[C@@H](O[C@@H]2O[C@H](C)C[C@H](N(C)C)[C@H]2O)[C@@](C)(OCC#Cc2cnc3c(F)cccc3c2)C[C@@H](C)C2=NCCN3C(=O)O[C@@]1(C)[C@H]3[C@H]2C | 0.1 µg/mL (≈ 0.124 µM) | ≤ 0.008 µg/mL | 0.25 µg/mL (≈ 0.31 µM) | 0.004 µg/mL (≈ 0.00496 µM) | 0.5 µg/mL (≈ 0.62 µM) | 0.06 µg/mL (≈ 0.0744 µM) | 4 µg/mL (≈ 4.96 µM) | 2 µg/mL (≈ 2.48 µM)
7 | CC[C@H]1OC(=O)[C@@](C)(F)C(=O)[C@H](C)[C@@H](O[C@@H]2O[C@H](C)C[C@H](N(C)C)[C@H]2O)[C@@](C)(OCC#Cc2cnc3c(F)cccc3c2)C[C@@H](C)C2=NCCN3C(=O)O[C@@]1(C)[C@H]3[C@H]2C | 0.125 µg/mL (≈ 0.152 µM) | ≤ 0.008 µg/mL | 0.125 µg/mL (≈ 0.152 µM) | ≤ 0.008 µg/mL | 0.25 µg/mL (≈ 0.303 µM) | 0.25 µg/mL (≈ 0.303 µM) | 0.125 µg/mL (≈ 0.152 µM) | 4 µg/mL (≈ 4.85 µM)
8 | CC[C@H]1OC(=O)[C@H](C)C(=O)[C@H](C)[C@@H](O[C@@H]2O[C@H](C)C[C@H](N(C)C)[C@H]2O)[C@@](C)(OCC#Cc2cnc3c(OC)cccc3c2)C[C@@H](C)C2=NCCN3C(=O)O[C@@]1(C)[C@H]3[C@H]2C | 0.06 µg/mL (≈ 0.0733 µM) | ≤ 0.008 µg/mL | 0.06 µg/mL (≈ 0.0733 µM) | ≤ 0.008 µg/mL | 4 µg/mL (≈ 4.88 µM) | 0.25 µg/mL (≈ 0.305 µM) | 8 µg/mL (≈ 9.77 µM) | 2 µg/mL (≈ 2.44 µM)
9 | CC[C@H]1OC(=O)[C@H](C)C(=O)[C@H](C)[C@@H](O[C@@H]2O[C@H](C)C[C@H](N(C)C)[C@H]2O)[C@@](C)(OCC#Cc2ccccc2)C[C@@H](C)C2=NCCN3C(=O)O[C@@]1(C)[C@H]3[C@H]2C | 0.2 µg/mL (≈ 0.271 µM) | 0.06 µg/mL (≈ 0.0813 µM) | 0.5 µg/mL (≈ 0.678 µM) | 0.03 µg/mL (≈ 0.0407 µM) | 64 µg/mL (≈ 86.7 µM) | 0.2 µg/mL (≈ 0.271 µM) | > 128 µg/mL | 8 µg/mL (≈ 10.8 µM)
10 | CC[C@H]1OC(=O)[C@H](C)C(=O)[C@H](C)[C@@H](O[C@@H]2O[C@H](C)C[C@H](N(C)C)[C@H]2O)[C@@](C)(OCC#Cc2ccc(-c3ccccn3)cc2)C[C@@H](C)C2=NCCN3C(=O)O[C@@]1(C)[C@H]3[C@H]2C | 0.03 µg/mL (≈ 0.0368 µM) | ≤ 0.008 µg/mL | ≤ 0.008 µg/mL | ≤ 0.008 µg/mL | 8 µg/mL (≈ 9.82 µM) | 0.25 µg/mL (≈ 0.307 µM) | ≤ 0.008 µg/mL | 1 µg/mL (≈ 1.23 µM)
11 | CC[C@H]1OC(=O)[C@H](C)C(=O)[C@H](C)[C@@H](O[C@@H]2O[C@H](C)C[C@H](N(C)C)[C@H]2O)[C@@](C)(OC)C[C@@H](C)C2=NCCN3C(=O)O[C@@]1(C)[C@H]3[C@H]2C | 0.1 µg/mL (≈ 0.157 µM) | 0.06 µg/mL (≈ 0.0941 µM) | 1 µg/mL (≈ 1.57 µM) | 0.06 µg/mL (≈ 0.0941 µM) | > 128 µg/mL | 0.1 µg/mL (≈ 0.157 µM) | > 128 µg/mL | 4 µg/mL (≈ 6.27 µM)
12 | CC[C@H]1OC(=O)[C@H](C)C(=O)[C@H](C)[C@@H](O[C@@H]2O[C@H](C)C[C@H](N(C)C)[C@H]2O)[C@@](C)(OCC#Cc2ccc(-c3nnn(C)n3)s2)C[C@@H](C)C2=NCCN3C(=O)O[C@@]1(C)[C@H]3[C@H]2C | 0.125 µg/mL (≈ 0.151 µM) | ≤ 0.008 µg/mL | 0.06 µg/mL (≈ 0.0726 µM) | ≤ 0.008 µg/mL | 2 µg/mL (≈ 2.42 µM) | 0.5 µg/mL (≈ 0.605 µM) | 0.003 µg/mL (≈ 0.00363 µM) | 4 µg/mL (≈ 4.84 µM)
13 | CC[C@H]1OC(=O)[C@H](C)C(=O)[C@H](C)[C@@H](O[C@@H]2O[C@H](C)C[C@H](N(C)C)[C@H]2O)[C@@](C)(OCC#CCCc2ccc(-c3ccccn3)cc2)C[C@@H](C)C2=NCCN3C(=O)O[C@@]1(C)[C@H]3[C@H]2C | 0.25 µg/mL (≈ 0.297 µM) | ≤ 0.008 µg/mL | 0.06 µg/mL (≈ 0.0712 µM) | ≤ 0.008 µg/mL | 0.5 µg/mL (≈ 0.593 µM) | 0.25 µg/mL (≈ 0.297 µM) | 0.03 µg/mL (≈ 0.0356 µM) | 2 µg/mL (≈ 2.37 µM)
14 | CC[C@H]1OC(=O)[C@H](C)C(=O)[C@H](C)[C@@H](O[C@@H]2O[C@H](C)C[C@H](N(C)C)[C@H]2O)[C@@](C)(OCC#Cc2cnc3ccccc3c2)C[C@@H](C)C2=NCCN3C(=O)O[C@@]1(C)[C@H]3[C@H]2C | 0.1 µg/mL (≈ 0.127 µM) | 0.015 µg/mL (≈ 0.019 µM) | 0.25 µg/mL (≈ 0.317 µM) | ≤ 0.004 µg/mL | 1 µg/mL (≈ 1.27 µM) | 0.1 µg/mL (≈ 0.127 µM) | 2 µg/mL (≈ 2.53 µM) | 2 µg/mL (≈ 2.53 µM)
15 | CC[C@H]1OC(=O)[C@H](C)C(=O)[C@H](C)[C@@H](O[C@@H]2O[C@H](C)C[C@H](N(C)C)[C@H]2O)[C@](C)(OCC=Cc2cnc3ccccc3c2)C[C@@H](C)C(=O)[C@H](C)[C@H]2NC(=O)O[C@@]21C [CETHROMYCIN] | 0.05 µg/mL (≈ 0.0653 µM) | < 0.005 µg/mL | 0.25 µg/mL (≈ 0.326 µM) | 0.03 µg/mL (≈ 0.0392 µM) | 1 µg/mL (≈ 1.31 µM) | 0.05 µg/mL (≈ 0.0653 µM) | 16 µg/mL (≈ 20.9 µM) | 2 µg/mL (≈ 2.61 µM)
16 | CC[C@H]1OC(=O)[C@H](C)[C@@H](O[C@H]2C[C@@](C)(OC)[C@@H](O)[C@H](C)O2)[C@H](C)[C@@H](O[C@@H]2O[C@H](C)C[C@H](N(C)C)[C@H]2O)[C@](C)(O)C[C@@H](C)C(=O)[C@H](C)[C@@H](O)[C@]1(C)O [ERYTHROMYCIN] | 6.2 µg/mL (≈ 8.45 µM) | 0.03 µg/mL (≈ 0.0409 µM) | 16 µg/mL (≈ 21.8 µM) | 0.06 µg/mL (≈ 0.0818 µM) | > 128 µg/mL | 0.39 µg/mL (≈ 0.531 µM) | > 128 µg/mL | 8 µg/mL (≈ 10.9 µM)
